These results are taken from ChEMBL document CHEMBL1770065, “Discovery of a clinical candidate from the structurally unique dioxa-bicyclo[3.2.1]octane class of sodium-dependent glucose cotransporter 2 inhibitors” (J Med Chem, 2011).

Data set [1] can be described thus: Apparent intrinsic clearance in human hepatocytes assessed per million of cells. In kind it is ADME, cell-based, Liver, Hepatocyte.
Data set [2] in a line: Apparent intrinsic clearance in human liver microsomes assessed per mg of protein. It counts as ADME, Microsome.
Data set [3] can be described thus: Lipophilicity, log D of the compound. In kind it is physicochemical. The note with it: octanol/water.
Data set [4] concerns the target T1, Sodium/glucose cotransporter 2 (Homo sapiens, UniProt P31639).
T1 sequence (P31639 whole entry): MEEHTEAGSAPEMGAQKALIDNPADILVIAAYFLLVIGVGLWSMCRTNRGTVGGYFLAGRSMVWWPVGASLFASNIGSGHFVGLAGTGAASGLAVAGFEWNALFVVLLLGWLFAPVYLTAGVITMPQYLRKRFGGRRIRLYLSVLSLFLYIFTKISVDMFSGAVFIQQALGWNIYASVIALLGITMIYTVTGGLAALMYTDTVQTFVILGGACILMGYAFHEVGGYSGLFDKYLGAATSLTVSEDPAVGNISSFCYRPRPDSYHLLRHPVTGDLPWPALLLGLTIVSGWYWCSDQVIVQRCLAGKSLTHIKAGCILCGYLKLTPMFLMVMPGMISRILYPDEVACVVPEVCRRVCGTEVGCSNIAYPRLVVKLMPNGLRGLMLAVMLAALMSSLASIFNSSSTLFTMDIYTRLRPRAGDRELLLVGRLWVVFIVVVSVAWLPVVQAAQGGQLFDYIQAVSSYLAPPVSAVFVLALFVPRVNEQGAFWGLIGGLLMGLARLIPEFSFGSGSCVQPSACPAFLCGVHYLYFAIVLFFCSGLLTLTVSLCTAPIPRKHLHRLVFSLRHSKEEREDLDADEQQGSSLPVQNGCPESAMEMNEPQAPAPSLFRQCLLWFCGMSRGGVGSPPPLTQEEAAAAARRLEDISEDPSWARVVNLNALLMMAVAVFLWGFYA
The experiment in a line: Inhibition of human SGLT2 expressed in CHO cells assessed as inhibition of methyl alpha-D-glucopyranoside uptake after 1 hr. It counts as cell-based.

The target of data set [5] is T2, Sodium/glucose cotransporter 1 (Homo sapiens, UniProt P13866).
T2 sequence (P13866 whole entry): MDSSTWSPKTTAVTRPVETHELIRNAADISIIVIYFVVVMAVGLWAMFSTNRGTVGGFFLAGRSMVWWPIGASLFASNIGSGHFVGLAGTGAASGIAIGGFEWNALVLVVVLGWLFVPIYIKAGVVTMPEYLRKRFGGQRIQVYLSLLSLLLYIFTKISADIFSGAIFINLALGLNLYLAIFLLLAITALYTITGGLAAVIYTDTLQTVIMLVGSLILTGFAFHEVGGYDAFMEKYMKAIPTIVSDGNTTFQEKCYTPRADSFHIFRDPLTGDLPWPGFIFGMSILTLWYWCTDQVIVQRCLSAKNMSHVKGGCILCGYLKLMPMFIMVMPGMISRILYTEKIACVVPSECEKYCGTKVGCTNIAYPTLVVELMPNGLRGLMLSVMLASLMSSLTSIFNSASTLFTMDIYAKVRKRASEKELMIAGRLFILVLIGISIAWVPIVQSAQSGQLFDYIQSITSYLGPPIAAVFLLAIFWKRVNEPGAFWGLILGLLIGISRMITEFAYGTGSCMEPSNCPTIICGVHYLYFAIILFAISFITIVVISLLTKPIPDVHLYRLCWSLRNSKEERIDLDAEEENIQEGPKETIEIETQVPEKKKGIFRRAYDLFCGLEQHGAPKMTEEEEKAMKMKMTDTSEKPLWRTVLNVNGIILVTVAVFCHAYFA
The experiment in a line: Inhibition of human SGLT1 expressed in CHO cells assessed as inhibition of methyl alpha-D-glucopyranoside uptake after 1 hr. In kind it is cell-based.

Data set [6] in a line: Half life in Sprague-Dawley rat at 2 mg/kg, iv. It counts as ADME, organism-based. Set-up: dose 2 mg/kg, route intravenous. The note with it: in vivo.
A further data set concerns Rattus norvegicus. The experiment in a line: Hepatic clearance in Sprague-Dawley rat at 2 mg/kg, iv. In kind it is ADME, organism-based, Liver. On the set-up: dose 2 mg/kg, route intravenous. The note with it: in vivo.
A short description of data set [7]: Renal clearance in Sprague-Dawley rat at 2 mg/kg, iv. The note with it: in vivo. Set-up: dose 2 mg/kg, route intravenous. It counts as ADME, organism-based, Kidney.
The subject of data set [8] is Plasma. The experiment in a line: Fraction unbound in rat plasma at 1000 ng/mL by equilibrium dialysis method. It counts as ADME, cell-free.
The test system of data set [9] is Plasma. The experiment in a line: Fraction unbound in human plasma at 1000 ng/mL by equilibrium dialysis method. It counts as ADME, cell-free.

SMILES strings stand for the structures.

In the case of `COc1ccc(Cc2cc([C@@H]3O[C@H](CO)[C@@H](O)[C@H](O)[C@H]3O)ccc2C)cc1`, the hepatocyte CLint in data set [1] was 3.4 µL/min/1e6 cells. Also, the microsomal CLint in data set [2] was less than 8 µL/min/mg. The compound further came in with a logD in data set [3] of 2.4.
The like results for `COc1ccc(Cc2cc([C@@H]3O[C@H](CO)[C@@H](O)[C@H](O)[C@H]3O)ccc2Cl)cc1` were, in that order, less than 2 µL/min/1e6 cells, less than 9 µL/min/mg and 3.
Regarding `CCOc1ccc(Cc2cc([C@]34OC[C@](CO)(O3)[C@@H](O)[C@H](O)[C@H]4O)ccc2C)cc1`, the hepatocyte CLint in data set [1] was 2 µL/min/1e6 cells. Also, the values for the IC50 in [4] and in data set [5] were 1.11 nM and 958 nM, respectively. The microsomal CLint in data set [2] was found to be 8.9 µL/min/mg. This compound yielded a logD in data set [3] of 3.
For `COc1ccc(Cc2cc([C@]34OC[C@](CO)(O3)[C@@H](O)[C@H](O)[C@H]4O)ccc2Cl)cc1`, in data set [1], the hepatocyte CLint stood at 2 µL/min/1e6 cells. Besides, the half-life in [6] is 96 min. Further, the 50% inhibitory concentration (IC50) in [4] was determined as 0.882 nM. For the same compound, the intrinsic metabolic clearance (microsomal CLint) in [2] was 9.2 µL/min/mg. Moreover, the logD in data set [3] came to 3.2.
On to `CCc1ccc(Cc2cc([C@@H]3OC4(CNC4)[C@@H](O)[C@H](O)[C@H]3O)ccc2C)cc1`, for which, in data set [1], the hepatocyte CLint is less than 2 µL/min/1e6 cells. Moreover, the intrinsic clearance (microsomal CLint) in data set [2] was determined as 32 µL/min/mg. The compound also yielded a logD in data set [3] of 3.2.
For the compound `COc1ccc(Cc2cc([C@@H]3OC4(COC4)[C@@H](O)[C@H](O)[C@H]3O)ccc2C)cc1`, the hepatocyte CLint in [1] worked out at 44 µL/min/1e6 cells. In data set [6], this compound showed a half-life of 114 min. Moreover, the IC50 in data set [4] came to 6.98 nM. For the same compound, the intrinsic clearance (microsomal CLint) in data set [2] was found to be 12 µL/min/mg. This compound yielded a CL in the data set with Rattus norvegicus of 20.5 mL/min/kg. In data set [7], the CL renal was 1.8 mL/min/kg. In data set [3], this compound returned a logD of 3.
With `CCOc1ccc(Cc2cc([C@]34OC[C@](CO)(O3)[C@@H](O)[C@H](O)[C@@H]4O)ccc2Cl)cc1`, the IC50 was 89.9 nM in data set [4] and greater than 10000 nM in data set [5]. The compound also showed a logD in [3] of 3.8.
Turning to `COc1ccc(Cc2cc([C@]34OC[C@](CO)(O3)[C@@H](O)[C@H](O)[C@@H]4O)ccc2Cl)cc1`, the intrinsic clearance (hepatocyte CLint) in [1] was 2.3 µL/min/1e6 cells. The IC50 in [4] is 43.1 nM; in data set [5] it was greater than 10000 nM. In addition, in data set [2], the microsomal CLint came to 15 µL/min/mg. In data set [3], the log distribution coefficient (logD) turned out to be 3.9.
For the compound `COc1ccc(Cc2cc([C@]34OC[C@](CO)(O3)[C@@H](O)[C@H](O)[C@H]4O)ccc2C)cc1`, the Fu in the data set with Plasma [8] turned out to be 18.6%; in the data set with Plasma [9] it was 20.6%. Also, the hepatocyte CLint in data set [1] was determined as 2.1 µL/min/1e6 cells. Besides, the results for the IC50 in [4] and in data set [5] were 1.07 nM and 506 nM, respectively. For the same compound, the microsomal CLint in [2] is less than 8 µL/min/mg. This compound also showed a logD in [3] of 2.6.
